Experimental data from patent US20060029548A1, “Methods of diagnosing, monitoring and treating pulmonary diseases” (priority 2004, published 2006).
Values joined by “and” are separate entries in the source; they are usually repeats but may differ in a detail not shown here. Identical values can stand only once.

What was measured:
[1] = test system: pulmonary vagal afferent C fibers (P2X3/P2X2/3-receptors); test: Perfused nerve-lung preparation: action potentials in C fibers; assay type: cell-based, guinea pig; conditions: C fibers, 30 min, α,βmATP 10 uM 1 ml bolus
Protocol: (§1) The method for the extracellular recording of the activity of vagal sensory neurons projecting to guinea pig lungs -has been described in detail previously in Canning et al. [(2004) J. Physiol. 557:543-545], which is incorporated herein by reference in its entirety. Briefly, male Hartley guinea pigs (100-200 g) were killed with CO2 inhalation and exsanguination. The blood from the pulmonary circulation was washed out by in situ perfusion with Krebs' bicarbonate solution (KBS; comprised of 118 mM NaCl, 5.4 mM KCl, 1.0 mM NaH2PO4, 1.2 mM MgSO4, 1.9 mM CaCl2, 25.0 mM NaHCO3, 11.1 mM dextrose, and gassed with 95% O2-5% CO2 at pH7.4). The KBS contained 3 uM indomethacin to reduce the indirect influence of tissue prostanoids on sensory fiber activity. Trachea and right lungs, having intact right-side extrinsic vagal innervation by the inclusion, e.g., of right jugular and nodose ganglia, were dissected from the exsanguinated guinea pigs and placed in a two-compartment tissue bath. The right nodose and jugular ganglia, along with the rostral vagus nerve, were placed into one compartment of the tissue bath whereas the lung and trachea were placed into the second compartment of the tissue bath. The two compartments were separately superfused with KBS (6 ml min^−1, at 37° C.).
(§2) The pulmonary artery and trachea were cannulated with polyethylene (PE) tubing and continuously perfused with KBS (4 ml min^−1 and 2 ml min^−1, respectively). […]
(§3) Once a mechanosensitive receptive field was identified, a brief [<1 millisecond (ms)] electrical stimulus was delivered by a small concentric electrode that was positioned over a discrete region of the mechanosensitive receptive field to determine the conduction velocity of the fiber. […] Conduction velocity was calculated by dividing the distance along the nerve pathway by the time between the shock artifact and the action potential evoked by electrical stimulation of the mechanosensitive receptive field. […]

[2] = test system: pulmonary vagal afferent A fibers (P2X3/P2X2/3-receptors); test: Perfused nerve-lung preparation: action potentials in A fibers; assay type: cell-based, guinea pig; conditions: A fibers, 30 min, α,βmATP 10 uM 1 ml bolus
Protocol: as §1, §2, §3

[3] = test system: pulmonary RAR-containing afferent nerve fiber; test: Vagal activation experiments in dogs: action potentials in RAR-containing fibers; assay type: in vivo; conditions: anesthetized dog, rapid bolus; ATP 6 μmol/kg, capsaicin 10 ug kg−1, analogs 0.75 umol kg−1
Protocol: (§4) The experiments described in Example 5 were performed essentially as described in Pelleg et al. [(1996) J. Physiol. 490(1):265-275] and U.S. Pat. No. 5,874,420, both of which are incorporated herein by reference in their entirety. In brief, they were performed on anesthetized (sodium pentobarbitone, 30 mg kg^−1 plus 3 mg kg^−1 h^−1, intravenous) dogs artificially ventilated with room air using a respirator. Arterial blood pH, PO2, PCO2, body temperature were maintained as described in U.S. Pat. No. 5,874,420. A peripheral vein was cannulated for the administration of physiological saline solution and maintenance doses of anesthetic. Catheters were introduced via the femoral vein and left atrial appendage and positioned in the right atrium and left atrium for the administration of test solutions. The chest was opened by a longitudinal sternotomy. The right cervical vagosympathetic trunk was exposed by a midcervical longitudinal section of the skin and careful dissection of neck muscles and connective tissues. The edges of the cut skin were elevated and secured to create a trough which was filled with warm (about 37° C.) mineral oil. A section of the vagosympathetic trunk was placed on a small plate of black Perspex™ and fine branches were separated from the main bundle by careful dissection using microsurgical tools and a dissecting microscope (Model F212, Jenopik Jena, GmbH, Germany).
Extracellular neural action potentials were recorded using a custom-made bipolar electrode that contained two platinum-iridium wires (1.25 cm×0.0125 cm) connected to a high-impedence first-stage differential amplifier (model AC8331, CW, Inc., Ardmore, Pa.) via a shielded cable. The output of the first-stage amplifier was fed into a second-stage differential amplifier (model BMA-831/C, CWE, Inc.). Isolated fibers were laid on the pair of platinum-iridium wires. Vagal C fibers with chemosensitive endings have a sparse irregular discharge which is not associated with cardiac or respiratory cycles. Confirmation of fiber type was obtained by: first monitoring the response to capsaicin (10 microg kg^−1, intra-right atrial bolus); second, monitoring the response to mechanical stimulation of the lungs using gentle probing with forceps as well as inflation of the lungs to 2-3 times the tidal volume; and third, determining the speed of conduction using a stimulating electrode positioned distal to the initial recording site. Nerve fibers with RAR on their pulmonary endings, spontaneously fire a brief (i.e., short lasting) volley of action potentials associated with peak tracheal pressure during each respiratory cycle.
[…] Volume controls consisted of either 5 ml+5 ml or 1 ml+3 ml physiological saline. All injections were performed in the same mode by the same person. To exclude involvement of baroreceptors in the recorded neural activity, the latter was monitored before and after a bolus of nitroglycerine (1 mg; intravenous).
The procedure described in Example 1 was used to measure action potentials in dog pulmonary fibers with RAR on their terminals following administration of various agents. RAR activation generated a brief volley of action potentials associated with each respiratory cycle that was seen before as well as after administration of ATP (FIG. 7). […] Thus ATP modified the activity of the RAR-containing fiber manifested in their transient loss of the rapid adaptability characteristic.

vagal C fiber = test: Vagal activation experiments in dogs: action potentials in vagal C fibers; assay type: in vivo; conditions: anesthetized dog, rapid bolus; simultaneous recording with RAR-containing fiber
Protocol: as §4
Extracellular neural action potentials were recorded using a custom-made bipolar electrode that contained two platinum-iridium wires (1.25 cm×0.0125 cm) connected to a high-impedence first-stage differential amplifier (model AC8331, CW, Inc., Ardmore, Pa.) via a shielded cable. The output of the first-stage amplifier was fed into a second-stage differential amplifier (model BMA-831/C, CWE, Inc.). Isolated fibers were laid on the pair of platinum-iridium wires. Vagal C fibers with chemosensitive endings have a sparse irregular discharge which is not associated with cardiac or respiratory cycles. […]
ATP (3 umole kg^−1) and capsaicin (10 ug kg^−1) were administered as a rapid bolus into the right atrium (5 ml test solution+5 ml physiological saline flush). α,βmATP and β,γmATP were given as one low dose only (0.75 umol kg^−1) to avoid systemic side effects. […] To exclude involvement of baroreceptors in the recorded neural activity, the latter was monitored before and after a bolus of nitroglycerine (1 mg; intravenous). […]

[4] = test system: human subjects (airway responsiveness, FEV1); test: Inhalation challenge test: airway responsiveness measured as change in FEV1 (PD20); assay type: in vivo; conditions: for PD20 geometric mean: non-responders excluded; for PD20: individual subjects
Source text: (§5) The clinical study described in Examples 2-4 was randomized, double blind, crossover, and controlled. Each subject attended the laboratory on three occasions. Procedures on the initial screening visit included obtaining information about the study and a number of investigations in the following order: medical history, lung function, reversibility and skin prick testing. At visit 2 and 3, separated by 2-7 days, the subjects were subjected to either an ATP or AMP challenge in a randomized fashion such that, by the end of the study, each patient had been tested with both compounds. Before, immediately after, and 30 minutes after the challenge, lung function and Borg score for dyspnoea were determined, and symptoms other than dyspnoea were recorded.
In the clinical study described in Examples 2-4, spirometric tests were performed using a dry spirometer (Vitalograph Ltd., Buckingham, England) and the best value of the three expiratory manoeuvers was expressed as liters and percentage of the predicted.
(§6) For the tests described in Examples 2-4, ATP and AMP (Sigma, Gillingham, Dorset, England) were dissolved freshly in normal saline solution to produce a range of doubling concentrations from 0.227-929 umol/ml for ATP and from 0.138-1152 umol/ml for AMP and immediately used for bronchial challenge. The solutions were administered using a breath-activated dosimeter (Mefar, Bovezzo, Italy) with an output of 10 ul per inhalation [Prieto et al. (2003) Chest 123:993-997]. The subjects, while wearing a nose clip, inhaled (via a mouthpiece) five breaths of normal saline, followed by sequential doubling concentrations of either ATP or AMP from functional residual capacity to total lung capacity. FEV1 was measured from two minutes after the fifth inhalation of normal saline until there was a fall in FEV1 of ≧20% of its value recorded after saline inhalation or until maximal concentration of either ATP or AMP was inhaled. The provocative dose causing a 20% decrease in FEV1 (PD20) was calculated by interpolation of the logarithmic dose response curve.
All data from the analyses described in Examples 2-4 were performed with a software package (GraphPad Prism Software, Inc., USA). The significance of differences among groups was assessed by Student's t-test, and analysis of categorical variables was examined by Chi-square test. Pearson's correlation coefficient and linear regression analysis were used to analyze the relationship between the percentage decreases in FEV1 and Borg score. The PD20 values for ATP and AMP were logarithmically transformed to normalize their distribution and presented as geometric means. All other numerical variables were expressed as the mean±SEM and significance was defined as p<0.05.

[5] = test system: human subjects (perception of dyspnoea); test: Borg score for dyspnoea before and after inhalation challenge; assay type: in vivo; design: key to ΔBorg (change in Borg score before and after challenge): Borg score after minus before challenge; 0–10 scale
Source text: as §5
The modified Borg scale used to quantitate dyspnoea in the clinical study described in Examples 2-4 was a category scale in which words describing degrees of breathlessness were anchored to numbers between 0 and 10. The subjects were asked to select a number whose corresponding words most appropriately described their perception of breathlessness. The change in dyspnoea was expressed as ΔBorg, which was the difference in Borg score before and after the challenge [Rutgers et al. (2000) Eur. Respir. J. 16:486-490; Burdon et al. (1982) Am. Rev. Respir. Dis. 126:825-828]. Terms and associated numbers used in assessing Borg score were as follows: 0, “nothing at all”; 0.5, “very, very slight”; 1, “very slight”; 2, “slight”; 3, “moderate”; 4, “somewhat severe”; 5, “severe”; 7, “very severe”; 9, “very, very severe (almost maximal)”; and 10, “maximal” [Burdon et al. (1982)].
as §6

[6] = test system: human subjects (cough, throat irritation, sputum); test: Symptoms other than dyspnoea recorded after inhalation challenge; assay type: in vivo; conditions: all subjects
Source text: as §5, §6

For `O=C(O)c1cc(C(=O)O)c(C(=O)N(Cc2cccc(Oc3ccccc3)c2)[C@H]2CCCc3ccccc32)cc1C(=O)O` [A-317491, 5-({(3-phenoxybenzyl)[(1S)-1,2,3,4-tetrahydro-1-napththalenyl]amino}carbonyl)-1,2,4-benzenetricarboxylic acid], the “inhibition of the action of α,βmATP” value ([1]; antagonist 1 uM) was “no inhibitory effect”, the “reduction of response to α,βmATP” value ([1]; antagonist 10 uM) was 62±5% and the “inhibition of the action of α,βmATP” value ([2]; antagonist 1 uM) was 59±12%. The “reduction of response to α,βmATP” value ([2]; antagonist 10 uM) was 88±5%.
`Nc1ncnc2c1ncn2[C@@H]1O[C@H](COP(=O)(O)OP(=O)(O)CP(=O)(O)O)[C@@H](O)[C@H]1O` [β,γmATP, β,γ-methylene ATP] was tested, and the “effect on action potentials of RAR-containing fibers” value [3] was “acted similarly to ATP” and the “effect on action potentials of C fibers” value (vagal C fiber) was “acted similarly to ATP”.
`Nc1ncnc2c1ncn2[C@@H]1O[C@H](COP(=O)(O)O)[C@@H](O)[C@H]1O` [AMP, adenosine 5′-monophosphate] was tested, and the patients with bronchoconstriction ([4]; 19 smoking subjects (seven healthy smokers, seven smokers at risk, five COPD)) was 21%, the PD20 geometric mean ([4]; COPD (n = 7)) was 210.6 µmol/mL and the “patients who responded to challenge” value ([4]; COPD patients) was 33%. The “PD20 geometric mean (range)” value ([4]; all subjects who had airway responsiveness) was 82.9 (0.9-576.0) umol/ml, the PD20 geometric mean ([4]; asthma (n = 10)) was 113.5 µmol/mL and the response to challenge ([4]; healthy non-smokers, no change in FEV1 or reduction of less than 20%) was “negative”. For the same molecule, the “subjects who responded to challenge” value ([4]; healthy smokers) was 14%, the PD20 geometric mean ([4]; healthy smokers (n = 7)) was 74.6 µmol/mL and the PD20 ([4]; COPD (n = 7)) was 0.9 μmol/ml and >1152 μmol/ml (4×) and 72.0 μmol/ml and 168.4 μmol/ml. The PD20 ([4]; asthma (n = 10)) was 576.0 µmol/mL and 3.46 µmol/mL and 54.7 µmol/mL and 559.3 µmol/mL and 461.7 µmol/mL and 176.0 µmol/mL and >1152 µmol/mL and 15.8 µmol/mL and 556.4 µmol/mL and 72.0 µmol/mL, the PD20 ([4]; healthy smokers (n = 7)) was >1152 μmol/ml (6×) and 74.6 μmol/ml and the PD20 ([4]; non-smokers (n = 10), provocative dose causing 20% decrease in FEV1) was >1152 µmol/mL. The PD20 ([4]; smokers at risk (n = 7)) was >1152 μmol/ml (6×) and 576.0 μmol/ml, the PD20 geometric mean ([4]; non-smokers (n = 10)) was >1152 µmol/mL and the “subjects responsive to challenge” value ([4]; of the 40 subjects in the study) was 32.5%. The “patients who responded to challenge” value ([4]; patients with asthma) was 90%, the “ΔFEV1 (decrease in FEV1 as percentage of baseline FEV1)” value ([4]; patients with asthma) was 22% and the “subjects who responded to challenge” value ([4]; smokers at risk) was 14%. For the same molecule, the PD20 geometric mean ([4]; smokers at risk (n = 7)) was 576.0 µmol/mL, the “ΔBorg (change in Borg score before and after challenge)” value ([5]; COPD) was 0.6 and the “Borg score after challenge (at PD20)” value ([5]; COPD patients) was 0.8. For the same molecule, the “Borg score after challenge (at PD20)” value ([5]; patients with asthma) was 2.5, the “ΔBorg (change in Borg score before and after challenge)” value ([5]; patients with asthma) was 2.3 and the “subjects who coughed after challenge” value [6] was 48%. For the same molecule, the “subjects who had sputum after challenge” value [6] was 10% and the “subjects who had throat irritation after challenge” value [6] was 53%.
In the case of `COc1cc(CNC(=O)CCCC/C=C/C(C)C)ccc1O` [capsaicin], the “effect on action potentials of RAR-containing fibers” value [3] is reported as “did not alter the firing pattern” and the “effect on action potentials of C fibers” value (vagal C fiber) is reported as “stimulated only the former”.
